Assay results as given in the NIST ThermoML archive (doi:10.1021/je034017j).

Assay: xn = mol fraction of the nth substance listed
Conditions: 101 kPa, Liquid

CCCCCCO [hexan-1-ol] + CCCCCCCC
Conditions	kinematic viscosity [m2/s]	mass density [kg/m3]
293.15 K, x2 = 0	6.61e-06	818.84
293.15 K, x2 = 0.0618	5.49e-06	809.74
293.15 K, x2 = 0.086	–	806.25
293.15 K, x2 = 0.1114	4.74e-06	802.62
293.15 K, x2 = 0.1597	–	795.86
293.15 K, x2 = 0.1891	–	791.83
293.15 K, x2 = 0.1928	3.74e-06	791.32
293.15 K, x2 = 0.2346	–	785.68
293.15 K, x2 = 0.3022	2.75e-06	776.82
293.15 K, x2 = 0.4039	2.08e-06	764.07
293.15 K, x2 = 0.495	1.67e-06	753.22
293.15 K, x2 = 0.4994	–	752.71
293.15 K, x2 = 0.6088	1.31e-06	740.42
293.15 K, x2 = 0.715	1.08e-06	729.21
293.15 K, x2 = 0.7991	–	720.79
293.15 K, x2 = 0.8086	9.47e-07	719.86
293.15 K, x2 = 0.8381	–	717.02
293.15 K, x2 = 0.8767	–	713.37
293.15 K, x2 = 0.9078	8.43e-07	710.5
293.15 K, x2 = 0.9272	–	708.75
293.15 K, x2 = 0.9458	8.03e-07	707.09
303.15 K, x2 = 0	4.88e-06	811.56
303.15 K, x2 = 0.0233	–	808.05
303.15 K, x2 = 0.051	–	803.93
303.15 K, x2 = 0.086	3.85e-06	798.81
303.15 K, x2 = 0.1189	–	794.07
303.15 K, x2 = 0.1308	3.41e-06	792.38
303.15 K, x2 = 0.1581	–	788.53
303.15 K, x2 = 0.188	2.94e-06	784.37
303.15 K, x2 = 0.1922	–	783.8
303.15 K, x2 = 0.2352	–	777.94
303.15 K, x2 = 0.2632	–	774.2
303.15 K, x2 = 0.308	2.15e-06	768.33
303.15 K, x2 = 0.369	–	760.56
303.15 K, x2 = 0.3936	1.75e-06	757.47
303.15 K, x2 = 0.4152	–	754.82
303.15 K, x2 = 0.4508	–	750.49
303.15 K, x2 = 0.4994	1.38e-06	744.75
303.15 K, x2 = 0.5249	–	741.79
303.15 K, x2 = 0.578	–	735.78
303.15 K, x2 = 0.5852	1.17e-06	734.98
303.15 K, x2 = 0.6255	–	730.55
303.15 K, x2 = 0.7026	9.66e-07	722.36
303.15 K, x2 = 0.7143	–	721.15
303.15 K, x2 = 0.774	–	715.1
303.15 K, x2 = 0.7909	–	713.42
303.15 K, x2 = 0.8042	8.42e-07	712.11
303.15 K, x2 = 0.8532	–	707.39
303.15 K, x2 = 0.8767	7.73e-07	705.17
303.15 K, x2 = 0.9009	–	702.91
303.15 K, x2 = 0.9272	7.36e-07	700.52
303.15 K, x2 = 0.947	–	698.76
313.15 K, x2 = 0	3.69e-06	804.28
313.15 K, x2 = 0.0229	–	800.79
313.15 K, x2 = 0.0502	–	796.68
313.15 K, x2 = 0.0646	3.13e-06	794.53
313.15 K, x2 = 0.0825	–	791.88
313.15 K, x2 = 0.1067	2.81e-06	788.35
313.15 K, x2 = 0.1205	–	786.35
313.15 K, x2 = 0.1569	–	781.14
313.15 K, x2 = 0.2007	2.24e-06	774.99
313.15 K, x2 = 0.2441	–	769.04
313.15 K, x2 = 0.2976	1.78e-06	761.89
313.15 K, x2 = 0.3132	–	759.85
313.15 K, x2 = 0.3441	–	755.84
313.15 K, x2 = 0.3882	1.46e-06	750.23
313.15 K, x2 = 0.3938	–	749.53
313.15 K, x2 = 0.4703	–	740.16
313.15 K, x2 = 0.4916	1.18e-06	737.63
313.15 K, x2 = 0.4949	–	737.24
313.15 K, x2 = 0.5873	1e-06	726.62
313.15 K, x2 = 0.6023	–	724.95
313.15 K, x2 = 0.6746	–	717.11
313.15 K, x2 = 0.6964	–	714.81
313.15 K, x2 = 0.7108	8.36e-07	713.3
313.15 K, x2 = 0.757	–	708.56
313.15 K, x2 = 0.7619	–	708.06
313.15 K, x2 = 0.7893	7.56e-07	705.32
313.15 K, x2 = 0.8428	–	700.08
313.15 K, x2 = 0.8748	–	697.03
313.15 K, x2 = 0.9109	6.67e-07	693.67
313.15 K, x2 = 0.9297	–	691.97
313.15 K, x2 = 0.9599	6.41e-07	689.33

CCCCC(=O)OC [methyl pentanoate] + CCCCCCO
Capillary tube (Ostwald / Ubbelohde) method
Conditions	kinematic viscosity [m2/s]
293.15 K, x1 = 0.085	4.728e-06
293.15 K, x1 = 0.1145	4.25e-06
293.15 K, x1 = 0.1854	3.367e-06
293.15 K, x1 = 0.2862	2.527e-06
293.15 K, x1 = 0.4123	1.87e-06
293.15 K, x1 = 0.5087	1.533e-06
293.15 K, x1 = 0.6157	1.256e-06
293.15 K, x1 = 0.6835	1.129e-06
293.15 K, x1 = 0.7846	9.82e-07
293.15 K, x1 = 0.9071	8.57e-07
293.15 K, x1 = 0.9274	8.42e-07
293.15 K, x1 = 1	8e-07
303.15 K, x1 = 0.0771	3.701e-06
303.15 K, x1 = 0.1183	3.251e-06
303.15 K, x1 = 0.192	2.619e-06
303.15 K, x1 = 0.2983	1.994e-06
303.15 K, x1 = 0.4502	1.436e-06
303.15 K, x1 = 0.4593	1.412e-06
303.15 K, x1 = 0.5089	1.285e-06
303.15 K, x1 = 0.613	1.085e-06
303.15 K, x1 = 0.691	9.67e-07
303.15 K, x1 = 0.7873	8.55e-07
303.15 K, x1 = 0.8796	7.75e-07
303.15 K, x1 = 0.9346	7.39e-07
303.15 K, x1 = 1	7.08e-07
313.15 K, x1 = 0.0802	2.858e-06
313.15 K, x1 = 0.1168	2.58e-06
313.15 K, x1 = 0.1965	2.082e-06
313.15 K, x1 = 0.2939	1.644e-06
313.15 K, x1 = 0.3995	1.321e-06
313.15 K, x1 = 0.5141	1.083e-06
313.15 K, x1 = 0.548	1.028e-06
313.15 K, x1 = 0.5971	9.61e-07
313.15 K, x1 = 0.6912	8.44e-07
313.15 K, x1 = 0.7876	7.52e-07
313.15 K, x1 = 0.9035	6.75e-07
313.15 K, x1 = 0.9358	6.58e-07
313.15 K, x1 = 1	6.34e-07

Conditions	mass density [kg/m3]
293.15 K, x1 = 0.085	824.62
293.15 K, x1 = 0.1145	826.65
293.15 K, x1 = 0.1854	831.55
293.15 K, x1 = 0.2862	838.56
293.15 K, x1 = 0.4123	847.4
293.15 K, x1 = 0.5087	854.22
293.15 K, x1 = 0.6157	861.84
293.15 K, x1 = 0.6835	866.67
293.15 K, x1 = 0.7846	873.96
293.15 K, x1 = 0.9071	882.86
293.15 K, x1 = 0.9274	884.35
293.15 K, x1 = 1	889.75
303.15 K, x1 = 0.0771	816.54
303.15 K, x1 = 0.1183	819.23
303.15 K, x1 = 0.192	824.09
303.15 K, x1 = 0.2983	831.16
303.15 K, x1 = 0.4502	841.37
303.15 K, x1 = 0.4593	841.99
303.15 K, x1 = 0.5089	845.34
303.15 K, x1 = 0.613	852.44
303.15 K, x1 = 0.691	857.8
303.15 K, x1 = 0.7873	864.46
303.15 K, x1 = 0.8796	870.9
303.15 K, x1 = 0.9346	874.8
303.15 K, x1 = 1	879.51
313.15 K, x1 = 0.0802	809.21
313.15 K, x1 = 0.1168	811.47
313.15 K, x1 = 0.1965	816.46
313.15 K, x1 = 0.2939	822.62
313.15 K, x1 = 0.3995	829.39
313.15 K, x1 = 0.5141	836.8
313.15 K, x1 = 0.548	838.99
313.15 K, x1 = 0.5971	842.2
313.15 K, x1 = 0.6912	848.37
313.15 K, x1 = 0.7876	854.78
313.15 K, x1 = 0.9035	862.6
313.15 K, x1 = 0.9358	864.8
313.15 K, x1 = 1	869.32
